Molecules are shown by their SMILES. Calls of active or inactive are those of the source. No cut-off for these calls is given here.

The subject of series [1] is RAW264.7. Put plainly: Inhibition COX2 mRNA expression levels in LPS-induced mouse RAW264.7 cells at 1 to 4 uM by RT-PCR analysis. Type of series: functional, cell-based.
For series [2], the system named is RAW264.7. The series can be described thus: Antiinflammatory activity in mouse RAW264.7 cells assessed as inhibition of LPS-induced nitric oxide production preincubated for 1 hr followed by LPS stimulation for 24 hrs by Griess method. In kind it is functional, cell-based.
In series [3] the test system is RAW264.7. The series can be described thus: Antiinflammatory activity in mouse RAW264.7 cells assessed as inhibition of LPS-induced nitric oxide production at 50 uM preincubated for 1 hr followed by LPS stimulation for 24 hrs by Griess method. In kind it is functional. (Nitrite, measured by Griess reagent, commonly stands in for NO production.)
The test system of series [4] is RAW264.7. Put plainly: Cytotoxicity against mouse RAW264.7 cells assessed as reduction in cell viability at 100 uM after 72 hrs by MTT assay. Type of series: cell-based. The following applies: raw264.7, 72 h. Background: Tetrazolium dyes change colour on reduction, which living cells bring about.
Series [5] has as its system RAW264.7. Put plainly: Inhibition COX2 protein expression levels in LPS-induced mouse RAW264.7 cells at 1 to 4 uM by Western blot analysis. In kind it is functional, cell-based. For orientation: In western blotting, separated proteins are transferred to a membrane and probed.
Series [6] concerns RAW264.7. The series can be described thus: Inhibition iNOS mRNA expression levels in LPS-induced mouse RAW264.7 cells at 1 to 4 uM by RT-PCR analysis. In kind it is functional, cell-based.
Series [7] concerns RAW264.7. The series can be described thus: Inhibition iNOS protein expression levels in LPS-induced mouse RAW264.7 cells at 1 to 4 uM by Western blot analysis. In kind it is functional, cell-based.
In series [8] the test system is RAW264.7. Put plainly: Inhibition iNOS protein expression levels in LPS-induced mouse RAW264.7 cells at 4 uM by Western blot analysis. Type of series: functional, cell-based.
The test system of series [9] is RAW264.7. The series can be described thus: Inhibition iNOS mRNA expression levels in LPS-induced mouse RAW264.7 cells at 4 uM by RT-PCR analysis. Type of series: functional, cell-based.

Usually inhibition stands for the relative decrease from the control value, in per cent. Broadly, the IC50 is the concentration that inhibits the measured activity by half. Regarding `COC1=CC(=O)C(CC=C(C)C)(CC=C(C)C)C(=O)/C1=C(N)\C=C\c1ccccc1`, the inhibition result in series [1] and in series [5] was “inactive” in each case. For the same compound, in [2], the IC50 is 2.1 µM. The inhibition at 50 µM in [3] was greater than 50%. The Activity entry in series [4] is given as “Non-Toxic”. Also, the inhibition entry in series [6] and in series [7] was “Active” throughout.
On to `COC1=CC(=O)C(CC=C(C)C)(CC=C(C)C)C2=C1C(=O)C[C@@H](c1ccccc1)O2`, for which the IC50 in [2] worked out at 20.4 µM. In addition, the inhibition at 50 µM in [3] is greater than 50%. Moreover, the Activity entry in series [4] is listed as “Non-Toxic”.
With `CC(=N)NCc1cccc(CN)c1`, the inhibition entry in series [8] and in series [9] was “Active” throughout.
Turning to `COc1cc(OC)c2c(=O)c(-c3cc(OC)c(OCC=C(C)C)cc3OC)coc2c1`, in [2], the IC50 was 35.7 µM. In addition, the inhibition at 50 µM in series [3] is greater than 50%. For the same compound, the Activity entry in [4] was “Non-Toxic”.

Values taken from ChEMBL document CHEMBL4431358, “Flavonoids and biphenylneolignans with anti-inflammatory activity from the stems of Millettia griffithii” (Bioorg Med Chem Lett, 2016).
